Numbers after ± are expanded uncertainties.
Assay: cn = amount concentration of the nth substance listed, in mol/dm3
Conditions: 101 kPa, Liquid, Advanced Condctivity Orion 162A

N.O=C(O)C(F)(F)C(F)(F)C(F)(F)C(F)(F)C(F)(F)C(F)(F)C(F)(F)F [ammonium perfluorooctanoate] + O
Conditions | electrical conductivity [S/m]
288.15 K, c1 = 0.002632 | 0.019 ± 0.0001
288.15 K, c1 = 0.005195 | 0.0351 ± 0.0001
288.15 K, c1 = 0.007692 | 0.051 ± 0.0001
288.15 K, c1 = 0.01013 | 0.0665 ± 0.0001
288.15 K, c1 = 0.0125 | 0.0805 ± 0.0002
288.15 K, c1 = 0.01481 | 0.0943 ± 0.0002
288.15 K, c1 = 0.01707 | 0.1074 ± 0.0002
288.15 K, c1 = 0.01928 | 0.1198 ± 0.0002
288.15 K, c1 = 0.02143 | 0.1318 ± 0.0003
288.15 K, c1 = 0.02353 | 0.1429 ± 0.0003
288.15 K, c1 = 0.02558 | 0.1533 ± 0.0003
288.15 K, c1 = 0.02759 | 0.163 ± 0.0003
288.15 K, c1 = 0.02955 | 0.1691 ± 0.0003
288.15 K, c1 = 0.03146 | 0.174 ± 0.0004
288.15 K, c1 = 0.03333 | 0.1785 ± 0.0004
288.15 K, c1 = 0.03516 | 0.1828 ± 0.0004
288.15 K, c1 = 0.03696 | 0.187 ± 0.0004
288.15 K, c1 = 0.03957 | 0.1926 ± 0.0004
288.15 K, c1 = 0.04211 | 0.1982 ± 0.0004
288.15 K, c1 = 0.04456 | 0.2036 ± 0.0004
288.15 K, c1 = 0.04694 | 0.209 ± 0.0004
288.15 K, c1 = 0.05 | 0.2155 ± 0.0004
288.15 K, c1 = 0.05294 | 0.2216 ± 0.0004
288.15 K, c1 = 0.05577 | 0.2275 ± 0.0005
293.15 K, c1 = 0.002632 | 0.021 ± 0.0001
293.15 K, c1 = 0.005195 | 0.0402 ± 0.0001
293.15 K, c1 = 0.007692 | 0.0582 ± 0.0001
293.15 K, c1 = 0.01013 | 0.0753 ± 0.0002
293.15 K, c1 = 0.0125 | 0.092 ± 0.0002
293.15 K, c1 = 0.01481 | 0.1078 ± 0.0002
293.15 K, c1 = 0.01707 | 0.1224 ± 0.0003
293.15 K, c1 = 0.01928 | 0.1364 ± 0.0003
293.15 K, c1 = 0.02143 | 0.1498 ± 0.0003
293.15 K, c1 = 0.02353 | 0.1625 ± 0.0003
293.15 K, c1 = 0.02558 | 0.1735 ± 0.0004
293.15 K, c1 = 0.02759 | 0.1815 ± 0.0004
293.15 K, c1 = 0.02955 | 0.1888 ± 0.0004
293.15 K, c1 = 0.03146 | 0.1942 ± 0.0004
293.15 K, c1 = 0.03333 | 0.1995 ± 0.0004
293.15 K, c1 = 0.03516 | 0.2045 ± 0.0004
293.15 K, c1 = 0.03696 | 0.209 ± 0.0004
293.15 K, c1 = 0.03957 | 0.216 ± 0.0004
293.15 K, c1 = 0.04211 | 0.222 ± 0.0004
293.15 K, c1 = 0.04536 | 0.231 ± 0.0005
293.15 K, c1 = 0.04848 | 0.239 ± 0.0005
293.15 K, c1 = 0.05149 | 0.247 ± 0.0005
293.15 K, c1 = 0.05437 | 0.2545 ± 0.0005
298.15 K, c1 = 0.002817 | 0.0241 ± 0.0001
298.15 K, c1 = 0.005556 | 0.0457 ± 0.0001
298.15 K, c1 = 0.008219 | 0.0665 ± 0.0001
298.15 K, c1 = 0.01081 | 0.0848 ± 0.0002
298.15 K, c1 = 0.01333 | 0.1033 ± 0.0002
298.15 K, c1 = 0.01579 | 0.1221 ± 0.0003
298.15 K, c1 = 0.01818 | 0.1411 ± 0.0003
298.15 K, c1 = 0.02051 | 0.1577 ± 0.0003
298.15 K, c1 = 0.02278 | 0.1735 ± 0.0004
298.15 K, c1 = 0.025 | 0.1884 ± 0.0004
298.15 K, c1 = 0.02716 | 0.199 ± 0.0004
298.15 K, c1 = 0.02927 | 0.2067 ± 0.0004
298.15 K, c1 = 0.03132 | 0.2144 ± 0.0004
298.15 K, c1 = 0.03333 | 0.2207 ± 0.0004
298.15 K, c1 = 0.03529 | 0.2269 ± 0.0005
298.15 K, c1 = 0.03721 | 0.2337 ± 0.0005
298.15 K, c1 = 0.03908 | 0.2394 ± 0.0005
298.15 K, c1 = 0.04091 | 0.2452 ± 0.0005
298.15 K, c1 = 0.0427 | 0.251 ± 0.0005
298.15 K, c1 = 0.04444 | 0.2558 ± 0.0005
298.15 K, c1 = 0.04699 | 0.2635 ± 0.0005
298.15 K, c1 = 0.04946 | 0.2721 ± 0.0005
298.15 K, c1 = 0.05185 | 0.2798 ± 0.0006
298.15 K, c1 = 0.05417 | 0.2856 ± 0.0006
298.15 K, c1 = 0.05641 | 0.2923 ± 0.0006
303.15 K, c1 = 0.002632 | 0.0264 ± 0.0001
303.15 K, c1 = 0.005195 | 0.0503 ± 0.0001
303.15 K, c1 = 0.007692 | 0.0726 ± 0.0002
303.15 K, c1 = 0.01013 | 0.0937 ± 0.0002
303.15 K, c1 = 0.0125 | 0.1137 ± 0.0002
303.15 K, c1 = 0.01481 | 0.1325 ± 0.0003
303.15 K, c1 = 0.01707 | 0.1505 ± 0.0003
303.15 K, c1 = 0.01928 | 0.1679 ± 0.0003
303.15 K, c1 = 0.02143 | 0.1833 ± 0.0004
303.15 K, c1 = 0.02353 | 0.1983 ± 0.0004
303.15 K, c1 = 0.02558 | 0.2125 ± 0.0004
303.15 K, c1 = 0.02759 | 0.221 ± 0.0004
303.15 K, c1 = 0.02955 | 0.229 ± 0.0005
303.15 K, c1 = 0.03146 | 0.236 ± 0.0005
303.15 K, c1 = 0.03333 | 0.243 ± 0.0005
303.15 K, c1 = 0.03516 | 0.2495 ± 0.0005
303.15 K, c1 = 0.03696 | 0.256 ± 0.0005
303.15 K, c1 = 0.03957 | 0.2645 ± 0.0005
303.15 K, c1 = 0.04211 | 0.273 ± 0.0005
303.15 K, c1 = 0.04456 | 0.281 ± 0.0006
303.15 K, c1 = 0.04694 | 0.289 ± 0.0006
303.15 K, c1 = 0.05 | 0.299 ± 0.0006
303.15 K, c1 = 0.05294 | 0.309 ± 0.0006
303.15 K, c1 = 0.05577 | 0.3185 ± 0.0006
308.15 K, c1 = 0.002632 | 0.0291 ± 0.0001
308.15 K, c1 = 0.005195 | 0.0556 ± 0.0001
308.15 K, c1 = 0.007692 | 0.0802 ± 0.0002
308.15 K, c1 = 0.01013 | 0.1034 ± 0.0002
308.15 K, c1 = 0.0125 | 0.1244 ± 0.0003
308.15 K, c1 = 0.01481 | 0.1452 ± 0.0003
308.15 K, c1 = 0.01707 | 0.165 ± 0.0003
308.15 K, c1 = 0.01928 | 0.1844 ± 0.0004
308.15 K, c1 = 0.02143 | 0.203 ± 0.0004
308.15 K, c1 = 0.02353 | 0.22 ± 0.0004
308.15 K, c1 = 0.02558 | 0.232 ± 0.0005
308.15 K, c1 = 0.02759 | 0.242 ± 0.0005
308.15 K, c1 = 0.02955 | 0.251 ± 0.0005
308.15 K, c1 = 0.03146 | 0.259 ± 0.0005
308.15 K, c1 = 0.03333 | 0.267 ± 0.0005
308.15 K, c1 = 0.03516 | 0.274 ± 0.0006
308.15 K, c1 = 0.03696 | 0.281 ± 0.0006
308.15 K, c1 = 0.03957 | 0.291 ± 0.0006
308.15 K, c1 = 0.04211 | 0.301 ± 0.0006
308.15 K, c1 = 0.04456 | 0.3105 ± 0.0006
308.15 K, c1 = 0.04772 | 0.322 ± 0.0006
308.15 K, c1 = 0.05075 | 0.333 ± 0.0007
308.15 K, c1 = 0.05366 | 0.344 ± 0.0007
313.15 K, c1 = 0.002632 | 0.0318 ± 0.0001
313.15 K, c1 = 0.005195 | 0.0606 ± 0.0001
313.15 K, c1 = 0.007692 | 0.0875 ± 0.0002
313.15 K, c1 = 0.01013 | 0.1126 ± 0.0002
313.15 K, c1 = 0.0125 | 0.1364 ± 0.0003
313.15 K, c1 = 0.01481 | 0.1592 ± 0.0003
313.15 K, c1 = 0.01707 | 0.1811 ± 0.0004
313.15 K, c1 = 0.01928 | 0.2025 ± 0.0004
313.15 K, c1 = 0.02143 | 0.223 ± 0.0004
313.15 K, c1 = 0.02353 | 0.241 ± 0.0005
313.15 K, c1 = 0.02558 | 0.256 ± 0.0005
313.15 K, c1 = 0.02759 | 0.267 ± 0.0005
313.15 K, c1 = 0.02955 | 0.277 ± 0.0006
313.15 K, c1 = 0.03146 | 0.286 ± 0.0006
313.15 K, c1 = 0.03333 | 0.295 ± 0.0006
313.15 K, c1 = 0.03516 | 0.303 ± 0.0006
313.15 K, c1 = 0.03696 | 0.311 ± 0.0006
313.15 K, c1 = 0.03957 | 0.322 ± 0.0006
313.15 K, c1 = 0.04211 | 0.333 ± 0.0007
313.15 K, c1 = 0.04456 | 0.344 ± 0.0007
313.15 K, c1 = 0.04694 | 0.354 ± 0.0007
313.15 K, c1 = 0.05 | 0.367 ± 0.0007
313.15 K, c1 = 0.05294 | 0.38 ± 0.0008
318.15 K, c1 = 0.002632 | 0.0344 ± 0.0001
318.15 K, c1 = 0.005195 | 0.0656 ± 0.0001
318.15 K, c1 = 0.007692 | 0.0948 ± 0.0002
318.15 K, c1 = 0.01013 | 0.1225 ± 0.0003
318.15 K, c1 = 0.0125 | 0.1474 ± 0.0003
318.15 K, c1 = 0.01481 | 0.1726 ± 0.0003
318.15 K, c1 = 0.01707 | 0.1968 ± 0.0004
318.15 K, c1 = 0.01928 | 0.219 ± 0.0004
318.15 K, c1 = 0.02143 | 0.241 ± 0.0005
318.15 K, c1 = 0.02353 | 0.262 ± 0.0005
318.15 K, c1 = 0.02558 | 0.279 ± 0.0006
318.15 K, c1 = 0.02759 | 0.292 ± 0.0006
318.15 K, c1 = 0.02955 | 0.303 ± 0.0006
318.15 K, c1 = 0.03146 | 0.313 ± 0.0006
318.15 K, c1 = 0.03333 | 0.323 ± 0.0006
318.15 K, c1 = 0.03516 | 0.3325 ± 0.0007
318.15 K, c1 = 0.03696 | 0.3415 ± 0.0007
318.15 K, c1 = 0.03957 | 0.3535 ± 0.0007
318.15 K, c1 = 0.04211 | 0.3655 ± 0.0007
318.15 K, c1 = 0.04456 | 0.377 ± 0.0008
318.15 K, c1 = 0.04772 | 0.3915 ± 0.0008
318.15 K, c1 = 0.05074 | 0.4055 ± 0.0008
318.15 K, c1 = 0.05366 | 0.419 ± 0.0008
